Assay results taken from patent publication US12421253B2 (Mirati Therapeutics, Inc., priority 2020, dated 2025).

Tests used:
KRas^G12S = target: T1, KRas^G12S (Homo sapiens, UniProt P01116, G12S); assay: KRas binding assay (TR-FRET displacement of Cy5 labelled tracer)
T1 construct: […]; biotin (biotinylated); purchased Accelegan Inc

KRas^G12V = target: T2, KRas^G12V (Homo sapiens, UniProt P01116, G12V); assay: as above
T2 construct: […]; biotin (biotinylated); purchased Accelegan Inc

KRas^G13D = KRas^G13D (Homo sapiens, UniProt P01116, G13D); assay: biochemical
Chain of KRas^G13D (P01116 1-169 isoform P01116-2 G13D): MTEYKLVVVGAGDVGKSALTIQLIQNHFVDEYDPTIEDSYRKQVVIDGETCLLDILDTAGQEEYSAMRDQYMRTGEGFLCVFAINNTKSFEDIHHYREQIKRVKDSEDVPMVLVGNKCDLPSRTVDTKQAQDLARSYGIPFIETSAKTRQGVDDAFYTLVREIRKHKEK

KRas^WT = target: T3, KRas^WT (Homo sapiens, UniProt P01116); assay: KRas binding assay (TR-FRET displacement of Cy5 labelled tracer)
T3 construct: […]; biotin (biotinylated); purchased Accelegan Inc
T3 sequence (P01116 1-169 isoform P01116-2): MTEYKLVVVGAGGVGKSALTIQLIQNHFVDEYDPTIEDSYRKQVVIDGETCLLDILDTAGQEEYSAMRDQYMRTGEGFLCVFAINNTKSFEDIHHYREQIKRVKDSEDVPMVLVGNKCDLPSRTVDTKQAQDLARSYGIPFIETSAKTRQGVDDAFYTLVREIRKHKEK

KRas^G12C = KRas^G12C (Homo sapiens, UniProt P01116, G12C); assay: biochemical
Chain of KRas^G12C (P01116 1-169 isoform P01116-2 G12C): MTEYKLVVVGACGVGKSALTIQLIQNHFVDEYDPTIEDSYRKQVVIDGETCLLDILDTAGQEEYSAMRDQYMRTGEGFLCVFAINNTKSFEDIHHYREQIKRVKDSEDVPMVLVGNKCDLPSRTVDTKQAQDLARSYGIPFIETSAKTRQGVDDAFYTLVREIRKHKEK

KRas^Q61H = KRas^Q61H (Homo sapiens, UniProt P01116, Q61H); assay: biochemical
Chain of KRas^Q61H (P01116 1-169 isoform P01116-2 Q61H): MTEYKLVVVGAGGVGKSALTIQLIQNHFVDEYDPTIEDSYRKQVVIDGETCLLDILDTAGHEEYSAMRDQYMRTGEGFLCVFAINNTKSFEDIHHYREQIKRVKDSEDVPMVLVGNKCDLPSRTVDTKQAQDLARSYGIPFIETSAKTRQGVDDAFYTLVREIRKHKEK

KRas^G12R = target: T4, KRas^G12R (Homo sapiens, UniProt P01116, G12R); assay: KRas binding assay (TR-FRET displacement of Cy5 labelled tracer)
T4 construct: […]; biotin (biotinylated); purchased Accelegan Inc
T4 sequence (P01116 1-169 isoform P01116-2 G12R): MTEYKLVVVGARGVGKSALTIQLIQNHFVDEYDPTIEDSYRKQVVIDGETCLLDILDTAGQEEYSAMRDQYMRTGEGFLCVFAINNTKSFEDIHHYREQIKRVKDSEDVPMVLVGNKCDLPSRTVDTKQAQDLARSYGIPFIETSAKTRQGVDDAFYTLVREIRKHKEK

KRas^G12D = target: T5, KRas^G12D (Homo sapiens, UniProt P01116, G12D); assay: as above
T5 construct: […]; biotin (biotinylated); purchased Accelegan Inc
T5 sequence (P01116 1-169 isoform P01116-2 G12D): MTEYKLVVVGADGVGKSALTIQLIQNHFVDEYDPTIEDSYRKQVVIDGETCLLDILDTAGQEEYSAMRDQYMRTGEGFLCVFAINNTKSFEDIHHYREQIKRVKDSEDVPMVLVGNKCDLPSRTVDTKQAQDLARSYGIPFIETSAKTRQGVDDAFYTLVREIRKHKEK

KRas^G12A = target: T6, KRas^G12A (Homo sapiens, UniProt P01116, G12A); assay: as above
T6 construct: […]; biotin (biotinylated); purchased Accelegan Inc
T6 sequence (P01116 1-169 isoform P01116-2 G12A): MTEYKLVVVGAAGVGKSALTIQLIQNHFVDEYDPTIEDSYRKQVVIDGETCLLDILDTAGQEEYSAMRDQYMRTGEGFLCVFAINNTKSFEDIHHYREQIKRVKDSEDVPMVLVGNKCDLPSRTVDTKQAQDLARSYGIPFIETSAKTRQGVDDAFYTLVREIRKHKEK

T2 sequence (P01116 1-169 isoform P01116-2 G12V): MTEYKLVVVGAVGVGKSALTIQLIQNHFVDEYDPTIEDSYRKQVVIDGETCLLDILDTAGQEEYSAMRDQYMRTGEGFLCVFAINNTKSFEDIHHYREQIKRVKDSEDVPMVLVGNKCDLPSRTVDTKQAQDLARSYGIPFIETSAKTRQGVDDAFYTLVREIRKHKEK
T1 sequence (P01116 1-169 isoform P01116-2 G12S): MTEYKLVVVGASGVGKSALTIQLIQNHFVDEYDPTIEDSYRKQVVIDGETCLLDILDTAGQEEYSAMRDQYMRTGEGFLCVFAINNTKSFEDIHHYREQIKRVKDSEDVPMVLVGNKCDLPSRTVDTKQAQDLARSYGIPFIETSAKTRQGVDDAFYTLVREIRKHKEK

| IC50 (KRas^G12S) | IC50 (KRas^G12V) | IC50 (KRas^G13D) | IC50 (KRas^WT) | IC50 (KRas^G12C) | IC50 (KRas^Q61H) | IC50 (KRas^G12R) | IC50 (KRas^G12D) | IC50 (KRas^G12A) | SMILES |
| --- | --- | --- | --- | --- | --- | --- | --- | --- | --- |
| 2420 nM | 2850 nM | 2810 nM | 2830 nM | 1930 nM | 2850 nM | 850 nM | 4100 nM | 2670 nM | CCc1cccc2cccc(N3CCc4c(nc(OCC56CCCN5CCC6)nc4N4CCCC(c5ncc(C)s5)C4)C3)c12 (stereo not shown) [Example 135, 2-(1-(7-(8-ethylnaphthalen-1-yl)-2-((tetrahydro-1H-pyrrolizin-7a(5H)-yl)methoxy)-5,6,7,8-tetrahydropyrido[3,4-d]pyrimidin-4-yl)piperidin-3-yl)-5-methylthiazole] |
| 2900 nM | 1350 nM | 7150 nM | 7310 nM | 3070 nM | 7800 nM | 4350 nM | 7620 nM | 3240 nM | CCc1cccc2cccc(N3CCc4c(nc(OCC56CCCN5CCC6)nc4NC[C@H]4CCC(=O)N4)C3)c12 [Example 148, (R)-5-(((7-(8-ethylnaphthalen-1-yl)-2-((tetrahydro-1H-pyrrolizin-7a(5H)-yl)methoxy)-5,6,7,8-tetrahydropyrido[3,4-d]pyrimidin-4-yl)amino)methyl)pyrrolidin-2-one] |
| 2030 nM | 1620 nM | 5720 nM | 5120 nM | 1650 nM | 5560 nM | 1810 nM | 874 nM | 3010 nM | CCc1cccc2cccc(N3CCc4c(nc(OCC56CCCN5CCC6)nc4N4CCCn5nc(C)cc5C4)C3)c12 [Example 56, 7-(8-ethylnaphthalen-1-yl)-2-((hexahydro-1H-pyrrolizin-7a-yl)methoxy)-4-(2-methyl-7,8-dihydro-4H-pyrazolo[1,5-a][1,4]diazepin-5(6H)-yl)-5,6,7,8-tetrahydropyrido[3,4-d]pyrimidine] |
| 953 nM | 990 nM | 254 nM | 255 nM | 656 nM | 343 nM | 724 nM | 4700 nM | 655 nM | CCc1cccc2cccc(N3CCc4c(nc(OCC56CCCN5CCC6)nc4N4CCCN(C(N)=O)CC4)C3)c12 [Example 95, 4-(7-(8-ethylnaphthalen-1-yl)-2-((tetrahydro-1H-pyrrolizin-7a(5H)-yl)methoxy)-5,6,7,8-tetrahydropyrido[3,4-d]pyrimidin-4-yl)-1,4-diazepane-1-carboxamide] |
| 330 nM | 342 nM | 800 nM | 613 nM | 299 nM | 808 nM | 284 nM | 219 nM | 569 nM | CCc1cccc2cccc(N3CCc4c(nc(OCC56CCCN5CCC6)nc4N4Cc5ccnn5CC(O)C4)C3)c12 (stereo not shown) [Example 50, 5-(7-(8-ethylnaphthalen-1-yl)-2-((hexahydro-1H-pyrrolizin-7a-yl)methoxy)-5,6,7,8-tetrahydropyrido[3,4-d]pyrimidin-4-yl)-5,6,7,8-tetrahydro-4H-pyrazolo[1,5-a][1,4]diazepin-7-ol] |
| 2150 nM | 1450 nM | 3630 nM | 2450 nM | 1650 nM | 3210 nM | 1490 nM | 1320 nM | 2710 nM | CCc1cccc2cccc(N3CCc4c(nc(OCC56CCCN5CCC6)nc4NC4CN(C(N)=O)C4)C3)c12 [Example 147, 3-((7-(8-ethylnaphthalen-1-yl)-2-((tetrahydro-1H-pyrrolizin-7a(5H)-yl)methoxy)-5,6,7,8-tetrahydropyrido[3,4-d]pyrimidin-4-yl)amino)azetidine-1-carboxamide] |
| 304 nM | 498 nM | 151 nM | 158 nM | 576 nM | 194 nM | 465 nM | 1320 nM | 225 nM | CCc1cccc2cccc(N3CCc4c(nc(OCC56CCCN5CCC6)nc4N4CCC(CO)C(O)C4)C3)c12 (stereo not shown) [Example 86, 1-(7-(8-ethylnaphthalen-1-yl)-2-((tetrahydro-1H-pyrrolizin-7a(5H)-yl)methoxy)-5,6,7,8-tetrahydropyrido[3,4-d]pyrimidin-4-yl)-4-(hydroxymethyl)piperidin-3-ol] |
| 505 nM | 403 nM | 176 nM | 215 nM | 482 nM | 228 nM | 470 nM | 1110 nM | 475 nM | CCc1cccc2cccc(N3CCc4c(nc(OCC56CCCN5CCC6)nc4N4CCOCC(n5cncn5)C4)C3)c12 (stereo not shown) [Example 88, 4-(7-(8-ethylnaphthalen-1-yl)-2-((tetrahydro-1H-pyrrolizin-7a(5H)-yl)methoxy)-5,6,7,8-tetrahydropyrido[3,4-d]pyrimidin-4-yl)-6-(1H-1,2,4-triazol-1-yl)-1,4-oxazepane] |
| 2470 nM | 4150 nM | 1320 nM | 2050 nM | 1920 nM | 1250 nM | 2010 nM | 5920 nM | 2230 nM | CCc1cccc2cccc(N3CCc4c(nc(OCC56CCCN5CCC6)nc4N4CCCC(c5n[nH]cc5NC(C)=O)C4)C3)c12 (stereo not shown) [Example 143, N-(3-(1-(7-(8-ethylnaphthalen-1-yl)-2-((tetrahydro-1H-pyrrolizin-7a(5H)-yl)methoxy)-5,6,7,8-tetrahydropyrido[3,4-d]pyrimidin-4-yl)piperidin-3-yl)-1H-pyrazol-4-yl)acetamide] |
| 1490 nM | 1790 nM | 1670 nM | 2100 nM | 1110 nM | 1640 nM | 462 nM | 3300 nM | 1160 nM | CCc1cccc2cccc(N3CCc4c(nc(OCC56CCCN5CCC6)nc4N4CCCC(c5c[nH]cn5)C4)C3)c12 (stereo not shown) [Example 116, 4-(3-(1H-imidazol-4-yl)piperidin-1-yl)-7-(8-ethylnaphthalen-1-yl)-2-((tetrahydro-1H-pyrrolizin-7a(5H)-yl)methoxy)-5,6,7,8-tetrahydropyrido[3,4-d]pyrimidine] |
| 3090 nM | 6450 nM | 363 nM | 357 nM | 2990 nM | 424 nM | 3080 nM | 15000 nM | 805 nM | CCc1cccc2cccc(N3CCc4c(nc(OCC56CCCN5CCC6)nc4N4CCCN(C(=O)c5ccco5)CC4)C3)c12 [Example 102, (4-(7-(8-ethylnaphthalen-1-yl)-2-((tetrahydro-1H-pyrrolizin-7a(5H)-yl)methoxy)-5,6,7,8-tetrahydropyrido[3,4-d]pyrimidin-4-yl)-1,4-diazepan-1-yl)(furan-2-yl)methanone] |
| 721 nM | 593 nM | 1130 nM | 959 nM | 465 nM | 929 nM | 219 nM | 7110 nM | 427 nM | CCc1cccc2cccc(N3CCc4c(nc(OCC56CCCN5CCC6)nc4N4CCC(OCC(N)=O)CC4)C3)c12 [Example 89, 2-((1-(7-(8-ethylnaphthalen-1-yl)-2-((tetrahydro-1H-pyrrolizin-7a(5H)-yl)methoxy)-5,6,7,8-tetrahydropyrido[3,4-d]pyrimidin-4-yl)piperidin-4-yl)oxy)acetamide] |
|  | 2860 nM |  |  | 6570 nM |  | 7910 nM | 20000 nM |  | CCc1cccc2cccc(N3CCc4c(nc(OCC56CCCN5CCC6)nc4N4CCN(c5ccncn5)CC4)C3)c12 [Example 58, 7-(8-ethylnaphthalen-1-yl)-2-((hexahydro-1H-pyrrolizin-7a-yl)methoxy)-4-(4-(pyrimidin-4-yl)piperazin-1-yl)-5,6,7,8-tetrahydropyrido[3,4-d]pyrimidine] |
|  | 204 nM |  | 445 nM |  |  | 485 nM | ≤ 2 nM |  | CCc1cccc2cccc(N3CCc4c(nc(OCC56CCCN5CCC6)nc4N4CCCCC(CO)C4)C3)c12 (stereo not shown) [Example 38, (1-(7-(8-ethylnaphthalen-1-yl)-2-((hexahydro-1H-pyrrolizin-7a-yl)methoxy)-5,6,7,8-tetrahydropyrido[3,4-d]pyrimidin-4-yl)azepan-3-yl)methanol] |
|  | 271 nM |  |  | 271 nM |  | 198 nM | 552 nM |  | CCc1cccc2cccc(N3CCc4c(nc(OCC56CCCN5CCC6)nc4N4CCCC(O)C4)C3)c12 (stereo not shown) [Example 43, 1-(7-(8-ethylnaphthalen-1-yl)-2-((hexahydro-1H-pyrrolizin-7a-yl)methoxy)-5,6,7,8-tetrahydropyrido[3,4-d]pyrimidin-4-yl)piperidin-3-ol] |
|  | 535 nM |  |  |  |  | 307 nM | 1160 nM |  | CCc1cccc2cccc(N3CCc4c(nc(OCC56CCCN5CCC6)nc4N4CCC(O)CC(CO)C4)C3)c12 (single isomer, unassigned) [Example 173, 1-(7-(8-ethylnaphthalen-1-yl)-2-((hexahydro-1H-pyrrolizin-7a-yl)methoxy)-5,6,7,8-tetrahydropyrido[3,4-d]pyrimidin-4-yl)-6-(hydroxymethyl)azepan-4-ol] |
|  | 221 nM |  | 214 nM |  |  | 168 nM | 479 nM |  | CCc1cccc2cccc(N3CCc4c(nc(OCC56CCCN5CCC6)nc4N4CCOCC(CO)C4)C3)c12 (stereo not shown) [Example 37, (4-(7-(8-ethylnaphthalen-1-yl)-2-((hexahydro-1H-pyrrolizin-7a-yl)methoxy)-5,6,7,8-tetrahydropyrido[3,4-d]pyrimidin-4-yl)-1,4-oxazepan-6-yl)methanol] |
